Results taken from patent publication US20260250312A1, “ANTIBACTERIAL COMPOUNDS ELIMINATING DORMANT BACTERIAL CELLS” (UNIVERSITÉ D'AIX-MARSEILLE, priority 2022, published 2026).
Values joined by “and” are separate entries in the source; they are usually repeats but may differ in a detail not shown here. Equal values may be shown once.

Legend:
CHO-K1 cells = test: WST1 cytotoxicity test; type: cell-based, Chinese hamster; details: Cricetulus griseus, CHO-K1, 24 h, WST1, 24 hours at 37° C.; read-out: IC50 CHO
From the text: Cytotoxicity: The test WST1 was used to measure the cytotoxic activity of the compounds of the invention. The test WST1 is a colorimetric test allowing to measure the viability and the degree of cell proliferation. It is based on cleavage of the colorless tetrazolium salts WST-1 (4—[3-(4-iodophenyl)-2-(4-nitrophenyl)-2H-5-tetrazolio]-1,3-benzene disulfonate) with mitochondrial dehydrogenases to the yellow-colored formazan derivative, which may be quantified by spectrophotometry at 420-480 nm. The WST1 test was performed on Chinese hamster ovary (CHO) cells. The CHO-K1 cells (ATCC, USA) were kept in culture in McCoy's 5A medium supplemented with 10% fetal calf serum, 2 mM of L-glutamine and a mixture of penicillin-streptomycin (100 U/ml: 10 μg/mL). The culture was incubated at 37° C. under an atmosphere enriched in CO2 (5%), and subcultured every two days. The cells were transferred into 96-well plates (25,000 cells/mL) in whole McCoy's 5A medium, and maintained for 24 hours at 37° C. under a humid atmosphere enriched in CO2 (5%). Increasing concentrations of tested compounds were added to the wells, each compound was tested in replicates and 8 growth controls containing the cells in the medium alone were included in each series of tests. After 24 hours at 37° C. (5% CO2), the culture medium was removed, the cells were rinsed in phosphate buffer (PBS) and 50 μL of PBS containing 10% of reagent WST1 were added to each well. After 20 minutes of incubation at 37° C., the results were read by spectrophotometry at 450 nm. The results are expressed in dose-response relationships, modeled by nonlinear regression analysis using the TableCurve software.
Cytotoxicity: The same WST1 test as described in Example 2 above was used.

[1] = system: Staphylococcus aureus (ATCC25923); test: Microdilution MIC assay (CLSI-based), S. aureus; type: cell-based; details: Staphylococcus aureus, ATCC25923, 20 h, 20 hours incubation at 35-37° C., MHB; read-out: Minimum inhibitory concentration S. aureus ATCC25923
Experimental: (§1) The antibacterial activity of compounds was measured using a standard microdilution assay based on the Clinical and Laboratory Standards Institute (CLSI) guidelines. This method was slightly modified. Indeed, assay volumes were increased to 200 μL to improve reproducibility. The chemical compounds to be tested were in the form of salts for biological testing.
(§2) Bacteria tested: Antibacterial activities of the compounds were tested on Staphylococcus aureus (ATCC25923), Enterococcus faecalis (ATCC29212), Escherichia coli ([…]) and Pseudomonas aeruginosa (ATCC27853).
(§3) Preparation of the Preculture: Mueller Hinton Agar plates were inoculated with frozen biological strain in order to obtain separate colonies and the plates were incubated during 24 h at 35-37° C. 3 colonies of similar aspect were picked out, resuspended in 5 mL of fresh Mueller Hinton broth 1× (MHB) and incubated with shaking (160 rpm) at 35-37° C. overnight.
(§4) 0.1 mL of bacteria in exponential phase were suspended in 9.9 mL of MHB (1:100 dilution). 0.1 mL of the 1:100 dilution were dispensed into the wells of microplates containing 0.1 ml of serial compounds dilutions to yield ca. 5×10^5 CFU/mL. In parallel, the stocks solutions of chemical compounds were first diluted in appropriate solvent to a final concentration of 5 mg/mL. 8 μL were dispended into the first wells of the microplates containing 0.1 ml of sterile broth and a 0.5 cascade dilution was performed in MHB from 0.2 mg/mL. One control was made for each strain tested. […] Tests were performed in triplicate.
(§5) Reading of the Results: After incubation, the filter was replaced with a transparent film, and an optical density reading was then taken in an iEMS plate spectrophotometer at 620 nm. Calculation of the minimum inhibitory concentration (MIC) was performed.

[2] = system: Enterococcus faecalis (ATCC29212); test: Microdilution MIC assay (CLSI-based), E. faecalis; type: cell-based; details: Enterococcus faecalis, ATCC29212, 20 h, 20 hours incubation at 35-37° C., MHB; read-out: Minimum inhibitory concentration E. faecalis ATCC29212
Experimental: as §1, §2, §3, §4, §5

[3] = system: Pseudomonas aeruginosa (ATCC27853); test: Microdilution MIC assay (CLSI-based), P. aeruginosa; type: cell-based; details: Pseudomonas aeruginosa, ATCC27853, 20 h, 20 hours incubation at 35-37° C., MHB; read-out: Minimum inhibitory concentration P. aeruginosa ATCC27853
Experimental: as §1, §2, §3, §4, §5

[4] = system: Escherichia coli (ATCC28922); test: Microdilution MIC assay (CLSI-based), E. coli; type: cell-based; details: Escherichia coli, ATCC28922, 20 h, 20 hours incubation at 35-37° C., MHB; read-out: Minimum inhibitory concentration E. coli ATCC28922
Experimental: as §1, §2, §3, §4, §5

SMILES | IC50 (CHO-K1 cells) | MIC [1] | MIC [2] | MIC [3] | MIC [4]
COC(=O)[C@H](Cc1ccccc1)NC(=O)CC[C@@H](C)[C@H]1CCC2C3C(CC[C@@]21C)[C@@]1(C)CC[C@H](NCCCNCCNCCCN)C[C@H]1C[C@H]3O (stereo partly drawn) [Compound S029, methyl ((4R)-4-((3S,5S,7R,10S,13R,17R)-3-((3-((2-((3-aminopropyl)amino)ethyl)amino)propyl)amino)-7-hydroxy-10,13-dimethylhexadecahydro-1H-cyclopenta[a]phenanthren-17-yl)pentanoyl)-L-phenylalaninate] | 47.8 µM and 33.9 µg/mL | 12.5 µM and 8 µg/mL | 12.5 µM and 8 µg/mL | 50 µM and 32 µg/mL | 50 µM and 32 µg/mL
CC[C@@H](C)[C@H](NC(=O)CC[C@@H](C)[C@H]1CCC2C3C(CC[C@@]21C)[C@@]1(C)CC[C@H](NCCCNCCCN)C[C@H]1C[C@H]3O)C(=O)OC (stereo partly drawn) [Compound S050, methyl (2S,3R)-2-((4R)-4-((3S,5S,7R,10S,13R,17R)-3-((3-((3-aminopropyl)amino)propyl)amino)-7-hydroxy-10,13-dimethylhexadecahydro-1H-cyclopenta[a]phenanthren-17-yl)pentanamido)-3-methylpentanoate] | 10.5 µM and 6.63 µg/mL | 3.12 µM and 2 µg/mL | 25 µM and 16 µg/mL | 50 µM and 32 µg/mL | 12.5 µM and 8 µg/mL
COC(=O)CNC(=O)CC[C@@H](C)[C@H]1CCC2C3C(CC[C@@]21C)[C@@]1(C)CC[C@H](NCCCN2CCN(CCCN)CC2)C[C@H]1C[C@H]3O (stereo partly drawn) [Compound S006, methyl ((4R)-4-((3S,5S,7R,10S,13R,17R)-3-((3-(4-(3-aminopropyl)piperazin-1-yl)propyl)amino)-7-hydroxy-10,13-dimethylhexadecahydro-1H-cyclopenta[a]phenanthren-17-yl)pentanoyl)glycinate] | 73.6 µM and 47.7 µg/mL | 25 µM and 16 µg/mL | > 200 µM and > 128 µg/mL | > 200 µM and > 128 µg/mL | > 200 µM and > 128 µg/mL
COC(=O)[C@H](NC(=O)CC[C@@H](C)[C@H]1CCC2C3C(C[C@H](O)[C@@]21C)[C@@]1(C)CC[C@H](NCCCN2CCN(CCCN)CC2)C[C@H]1C[C@H]3O)C(C)C (stereo partly drawn) [Compound S059, methyl ((4R)-4-((3S,5S,7R,10S,12S,13R,17R)-3-((3-(4-(3-aminopropyl)piperazin-1-yl)propyl)amino)-7,12-dihydroxy-10,13-dimethylhexadecahydro-1H-cyclopenta[a]phenanthren-17-yl)pentanoyl)-D-valinate] | 56.1 µM and 39.5 µg/mL | 50 µM and 32 µg/mL | > 200 µM and > 128 µg/mL | > 200 µM and > 128 µg/mL | 200 µM and 128 µg/mL
COC(=O)[C@@H](NC(=O)CC[C@@H](C)[C@H]1CC[C@H]2[C@@H]3[C@H](O)C[C@@H]4CC(NCCCN5CCN(CCCN)CC5)CC[C@]4(C)[C@H]3CC[C@]12C)C(C)C (mixture of isomers) [Compound S002, methyl ((4R)-4-((3S,5S,7R,10S,13R,17R)-3-((3-(4-(3-aminopropyl)piperazin-1-yl)propyl)amino)-7-hydroxy-10,13-dimethylhexadecahydro-1H-cyclopenta[a]phenanthren-17-yl)pentanoyl)valinate] | 93.3 µM and 64.2 µg/mL | 25 µM and 16 µg/mL | 50 µM and 32 µg/mL | 100 µM and 64 µg/mL | 100 µM and 64 µg/mL
COC(=O)[C@@H](Cc1ccc(O)cc1)NC(=O)CC[C@@H](C)[C@H]1CCC2C3C(C[C@H](O)[C@@]21C)[C@@]1(C)CC[C@H](NCCCNCCCCNCCCN)C[C@H]1C[C@H]3O (stereo partly drawn) [Compound S061, methyl ((4R)-4-((3S,5S,7R,10S,12S,13R,17R)-3-((3-((4-((3-aminopropyl)amino)butyl)amino)propyl)amino)-7,12-dihydroxy-10,13-dimethylhexadecahydro-1H-cyclopenta[a]phenanthren-17-yl)pentanoyl)-D-tyrosinate] | 6.85 µM and 5.17 µg/mL | 6.25 µM and 4 µg/mL | 100 µM and 64 µg/mL | 100 µM and 64 µg/mL | 100 µM and 64 µg/mL
COC(=O)[C@H](NC(=O)CC[C@@H](C)[C@H]1CCC2C3C(CC[C@@]21C)[C@@]1(C)CC[C@H](NCCNCCN)C[C@H]1C[C@H]3O)C(C)C (stereo partly drawn) [Compound S020, methyl ((4R)-4-((3S,5S,7R,10S,13R,17R)-3-((2-((2-aminoethyl)amino)ethyl)amino)-7-hydroxy-10,13-dimethylhexadecahydro-1H-cyclopenta[a]phenanthren-17-yl)pentanoyl)-D-valinate] | 17.2 µM and 10.2 µg/mL | 100 µM and 64 µg/mL | > 200 µM and > 128 µg/mL | > 200 µM and > 128 µg/mL | 100 µM and 64 µg/mL
COC(=O)[C@H](NC(=O)CC[C@@H](C)[C@H]1CCC2C3C(CC[C@@]21C)[C@@]1(C)CC[C@H](NCCCN)C[C@H]1C[C@H]3O)C(C)C (stereo partly drawn) [Compound S018, methyl ((4R)-4-((3S,5S,7R,10S,13R,17R)-3-((3-aminopropyl)amino)-7-hydroxy-10,13-dimethylhexadecahydro-1H-cyclopenta[a]phenanthren-17-yl)pentanoyl)-D-valinate] | 10.9 µM and 6.1 µg/mL | 50 µM and 32 µg/mL | 100 µM and 64 µg/mL | 200 µM and 128 µg/mL | 200 µM and 128 µg/mL
COC(=O)[C@@H](Cc1ccccc1)NC(=O)CC[C@@H](C)[C@H]1CCC2C3C(CC[C@@]21C)[C@@]1(C)CC[C@H](NCCCNCCCN)C[C@H]1C[C@H]3O (stereo partly drawn) [Compound S028, methyl ((4R)-4-((3S,5S,7R,10S,13R,17R)-3-((3-((3-aminopropyl)amino)propyl)amino)-7-hydroxy-10,13-dimethylhexadecahydro-1H-cyclopenta[a]phenanthren-17-yl)pentanoyl)-D-phenylalaninate] | 54.6 µM and 36.4 µg/mL | 12.5 µM and 8 µg/mL | 12.5 µM and 8 µg/mL | 50 µM and 32 µg/mL | 6.25 µM and 4 µg/mL
COC(=O)[C@H](NC(=O)CC[C@@H](C)[C@H]1CCC2C3C(C[C@H](O)[C@@]21C)[C@@]1(C)CC[C@H](NCCCNCCCCNCCCN)C[C@H]1C[C@H]3O)C(C)C (stereo partly drawn) [Compound S058, methyl ((4R)-4-((3S,5S,7R,10S,12S,13R,17R)-3-((3-((4-((3-aminopropyl)amino)butyl)amino)propyl)amino)-7,12-dihydroxy-10,13-dimethylhexadecahydro-1H-cyclopenta[a]phenanthren-17-yl)pentanoyl)-D-valinate] | 6.55 µM and 4.63 µg/mL | 12.5 µM and 8 µg/mL | 100 µM and 64 µg/mL | 50 µM and 32 µg/mL | 100 µM and 64 µg/mL
